Test results: PubChem BioAssay AID330 (DTP/NCI, 2004)
Values joined by “and” are separate entries in the source; they are usually repeats but may differ in a detail not shown here. Equal entries are not always repeated. Inconclusive results and toxic doses are left out. The calls were made as follows: active = survival T/C of 150% or more; inactive = T/C below 125% in these data.

Test system: P388 leukemia ip, CD2F1 mice, survival T/C
Assay: NCI In Vivo Anticancer Drug Screen. Data for tumor model P388 Leukemia (intraperitoneal) in CD2F1 (CDF1) mice
Conditions: endpoint: median survival time, higher = longer survival
How it was run: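 Mice carrying the transplanted tumor received test compound or vehicle. Survival was recorded in each group, and the value is the treated-group measurement divided by that of the vehicle-treated control group.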

[1] = dose: 50.0 mg/kg/injection, schedule: Q01DX005 (ip), vehicle: Klucel (hydroxypropylcellulose) (HPC)
[2] = dose: 100.0 mg/kg/injection, schedule: Q01DX005 (ip), vehicle: Klucel (hydroxypropylcellulose) (HPC)
[3] = dose: 200.0 mg/kg/injection, schedule: Q01DX005 (ip), vehicle: Klucel (hydroxypropylcellulose) (HPC)
[4] = dose: 50.0 mg/kg/injection, schedule: Q01DX009 (ip), vehicle: saline with Tween-80
[5] = dose: 100.0 mg/kg/injection, schedule: Q01DX009 (ip), vehicle: saline with Tween-80
[6] = dose: 200.0 mg/kg/injection, schedule: Q01DX009 (ip), vehicle: saline with Tween-80
[7] = dose: 400.0 mg/kg/injection, schedule: Q01DX009 (ip), vehicle: saline with Tween-80
[8] = dose: 50.0 mg/kg/injection, schedule: Q01DX009 (ip), vehicle: saline
[9] = dose: 100.0 mg/kg/injection, schedule: Q01DX009 (ip), vehicle: saline
[10] = dose: 200.0 mg/kg/injection, schedule: Q01DX009 (ip), vehicle: saline
[11] = dose: 50.0 mg/kg/injection, schedule: Q01DX005 (ip), vehicle: saline with Tween-80
[12] = dose: 100.0 mg/kg/injection, schedule: Q01DX005 (ip), vehicle: saline with Tween-80
[13] = dose: 25.0 mg/kg/injection, schedule: Q01DX009 (ip), vehicle: saline with Tween-80
[14] = dose: 25.0 mg/kg/injection, schedule: Q01DX005 (ip), vehicle: saline with Tween-80
[15] = dose: 50.0 mg/kg/injection, schedule: Q01DX009 (ip), vehicle: Klucel (hydroxypropylcellulose) (HPC)
[16] = dose: 100.0 mg/kg/injection, schedule: Q01DX009 (ip), vehicle: Klucel (hydroxypropylcellulose) (HPC)
[17] = dose: 200.0 mg/kg/injection, schedule: Q01DX009 (ip), vehicle: Klucel (hydroxypropylcellulose) (HPC)
[18] = dose: 100.0 mg/kg/injection, schedule: Q01DX001 (ip), vehicle: saline

Measured: T/C

COc1cc2ccc1NC(=O)N1CCN(CC1)C(=O)Nc1ccc(cc1OC)-c1ccc(c(OC)c1)NC(=O)N1CCN(CC1)C(=O)Nc1ccc-2cc1OC
inactive: [1] 101 % of control | [2] 98 % of control | [3] 102 % of control

Ic1ccc(N=Cc2cccs2)cc1
inactive: [4] 106 % of control | [5] 108 % of control | [6] 123 % of control | [7] 115 % of control

CCCCCCC(/C=C/c1ccc(Cl)c(Cl)c1)=N\NC(N)=O
inactive: [8] 104 % of control | [9] 100 % of control | [10] 98 % of control

O=[N+]([O-])C(Br)(Br)S(=O)(=O)c1ccccc1
inactive: [11] 97 % of control | [12] 106 % of control

CCN1CCc2nc(N)oc2CC1
inactive: [8] 107 % of control | [9] 110 % of control | [10] 115 % of control

CCOC(=O)c1cc2c(=O)oc3ccccc3c2oc1=O
inactive: dose: 12.5 mg/kg/injection, schedule: Q01DX009 (ip), vehicle: saline with Tween-80 105 % of control | [13] 98 % of control | [4] 100 % of control

COC(=O)[C@H]1[C@H]2C[C@@H]3c4[nH]c5ccccc5c4CCN3C[C@H]2C[C@@H](OC(=O)c2cc(OC)c(OC)c(OC)c2)[C@@H]1OC
inactive: dose: 3.13 mg/kg/injection, schedule: Q01DX005 (ip), vehicle: saline with Tween-80 105 % of control and 123 % of control | dose: 6.25 mg/kg/injection, schedule: Q01DX005 (ip), vehicle: saline with Tween-80 118 % of control (2×) and 124 % of control | dose: 12.5 mg/kg/injection, schedule: Q01DX005 (ip), vehicle: saline with Tween-80 114 % of control and 118 % of control and 124 % of control | [14] 111 % of control and 94 % of control and 97 % of control

COc1cc(-c2cc(C(=O)O)c3cc4ccccc4cc3n2)cc(OC)c1OC
inactive: [15] 113 % of control | [16] 110 % of control | [17] 104 % of control

CSC(C(C)=O)c1ccccc1 (stereo not drawn)
inactive: [13] 100 % of control | [4] 100 % of control | [5] 104 % of control

Nc1cc(=O)n2cn[nH]c2n1
inactive: dose: 100.0 mg/kg/injection, schedule: Q04DX002 (ip), vehicle: saline with Tween-80 100 % of control | dose: 200.0 mg/kg/injection, schedule: Q04DX002 (ip), vehicle: saline with Tween-80 103 % of control | dose: 400.0 mg/kg/injection, schedule: Q04DX002 (ip), vehicle: saline with Tween-80 103 % of control

CCOC(=O)C1=C(C)N(Cc2ccccc2)C2(O)C1=CC(=O)C(Cl)=C2Cl (stereo not drawn)
inactive: [8] 99 % of control | [9] 105 % of control | [10] 108 % of control

NCCOc1c2occc2cc2ccc(=O)oc12
inactive: [18] 110 % of control

O=C1Nc2ccc(Cl)cc2C1=O
inactive: [15] 99 % of control and 98 % of control | [16] 105 % of control | [17] 118 % of control and 89 % of control

CN(/N=N/N(C)c1ccccc1)c1ccccc1
inactive: [13] 103 % of control and 93 % of control | dose: 44.0 mg/kg/injection, schedule: Q01DX009 (ip), vehicle: saline with Tween-80 118 % of control | [4] 101 % of control and 107 % of control | dose: 66.0 mg/kg/injection, schedule: Q01DX009 (ip), vehicle: saline with Tween-80 104 % of control | [5] 98 % of control and 110 % of control and 90 % of control | dose: 150.0 mg/kg/injection, schedule: Q01DX009 (ip), vehicle: saline with Tween-80 100 % of control | [6] 103 % of control and 94 % of control | [7] 100 % of control and 86 % of control

CCC(=NCCCCCCN=C(CC)c1cc(C)cc([N+](=O)[O-])c1O)c1cc(C)cc([N+](=O)[O-])c1O.[Fe]
inactive: dose: 60.0 mg/kg/injection, schedule: Q01DX005 (ip), vehicle: saline with Tween-80 90 % of control | dose: 120.0 mg/kg/injection, schedule: Q01DX005 (ip), vehicle: saline with Tween-80 86 % of control | dose: 240.0 mg/kg/injection, schedule: Q01DX005 (ip), vehicle: saline with Tween-80 94 % of control

CSc1nc(N)nc2c1ncn2C1OC(CO)C(O)C1O (stereo not drawn)
inactive: [5] 90 % of control | dose: 100.0 mg/kg/injection, schedule: Q04DX003 (ip), vehicle: saline sonified 100 % of control | [6] 86 % of control | dose: 200.0 mg/kg/injection, schedule: Q04DX003 (ip), vehicle: saline sonified 100 % of control | [7] 100 % of control | dose: 400.0 mg/kg/injection, schedule: Q04DX003 (ip), vehicle: saline sonified 95 % of control

CCOC(CSc1ncnc2nc[nH]c12)OCC
inactive: [8] 100 % of control | [9] 96 % of control | [10] 112 % of control

Cc1[nH]c2c(-c3ccccc3)c3cc(Cl)ccc3nc2c1C(=O)O
inactive: dose: 25.0 mg/kg/injection, schedule: Q01DX009 (ip), vehicle: Klucel (hydroxypropylcellulose) (HPC) 92 % of control | [15] 89 % of control | [16] 86 % of control

CS(=O)(=O)NC(=O)NC(=S)c1ccc(Br)cc1
inactive: dose: 100.0 mg/kg/injection, schedule: Q01DX001 (ip), vehicle: saline with Tween-80 103 % of control | dose: 200.0 mg/kg/injection, schedule: Q01DX001 (ip), vehicle: saline with Tween-80 101 % of control | dose: 400.0 mg/kg/injection, schedule: Q01DX001 (ip), vehicle: saline with Tween-80 107 % of control

CC(C)(C)c1ccc(-c2nnc(C(F)(F)F)nn2)cc1
inactive: [4] 100 % of control | [5] 100 % of control | [6] 108 % of control

C=C1CC2(CCCCC2C)OC1=O (stereo not drawn)
inactive: [18] 101 % of control | dose: 200.0 mg/kg/injection, schedule: Q01DX001 (ip), vehicle: saline 101 % of control | dose: 400.0 mg/kg/injection, schedule: Q01DX001 (ip), vehicle: saline 100 % of control

CCCC(NC)C(CC)CN (stereo not drawn)
inactive: [4] 95 % of control | [5] 100 % of control

O=C(N[C@H](CO)[C@H]1CC(Br)=NO1)C(Cl)(Cl)Cl
inactive: dose: 11.25 mg/kg/injection, schedule: Q01DX005 (ip), vehicle: distilled water + Tween-80 102 % of control | dose: 22.5 mg/kg/injection, schedule: Q01DX005 (ip), vehicle: distilled water + Tween-80 105 % of control | dose: 45.0 mg/kg/injection, schedule: Q01DX005 (ip), vehicle: distilled water + Tween-80 107 % of control | dose: 90.0 mg/kg/injection, schedule: Q01DX005 (ip), vehicle: distilled water + Tween-80 112 % of control

Cc1cc(C)n(-c2ccc([N+](=O)[O-])cn2)n1
inactive: dose: 100.0 mg/kg/injection, schedule: Q04DX003 (ip), vehicle: saline 99 % of control | dose: 200.0 mg/kg/injection, schedule: Q04DX003 (ip), vehicle: saline 96 % of control | dose: 400.0 mg/kg/injection, schedule: Q04DX003 (ip), vehicle: saline 99 % of control

CC1CCCC2=C1C(O)c1cccc(N)c1C2O (stereo not drawn)
inactive: [1] 102 % of control | [2] 96 % of control | [3] 88 % of control

CCOC(=O)N(CCCl)N=O
inactive: dose: 0.31 mg/kg/injection, schedule: Q01DX009 (ip), vehicle: saline with Tween-80 114 % of control | dose: 0.62 mg/kg/injection, schedule: Q01DX009 (ip), vehicle: saline with Tween-80 118 % of control | dose: 2.5 mg/kg/injection, schedule: Q01DX009 (ip), vehicle: saline with Tween-80 96 % of control

c1ccc(-c2nc3cc4c(cc3n3cccc23)oc2ccccc24)cc1
inactive: [14] 95 % of control | [11] 100 % of control | [12] 94 % of control
